For 23 molecules, Ki and pKa results are on record in ChEMBL document CHEMBL3593209, “5-Aryl-1H-pyrazole-3-carboxylic acids as selective inhibitors of human carbonic anhydrases IX and XII” (Bioorg Med Chem, 2015).

Molecules are shown by their SMILES.

One data set has as its target Carbonic anhydrase 1 (Homo sapiens, UniProt P00915). Briefly: Inhibition of human recombinant carbonic anhydrase 1 expressed in Escherichia coli preincubated for 15 mins by stopped flow CO2 hydration method.
The target of another data set is Carbonic anhydrase 9 (Homo sapiens, UniProt Q16790).
Another data set addresses Carbonic anhydrase 12 (Homo sapiens, UniProt O43570). The experiment in a line: Inhibition of human recombinant carbonic anhydrase 12 expressed in Escherichia coli preincubated for 15 mins by stopped flow CO2 hydration method.
The target in a further data set is Carbonic anhydrase 2 (Homo sapiens, UniProt P00918). The experiment in a line: Inhibition of human recombinant carbonic anhydrase 2 expressed in Escherichia coli preincubated for 15 mins by stopped flow CO2 hydration method.
Data set [1] is described as follows: Dissociation constant, acidic pKa of the compound by spectrophotometric analysis.

Chain of Carbonic anhydrase 1 (P00915 whole entry): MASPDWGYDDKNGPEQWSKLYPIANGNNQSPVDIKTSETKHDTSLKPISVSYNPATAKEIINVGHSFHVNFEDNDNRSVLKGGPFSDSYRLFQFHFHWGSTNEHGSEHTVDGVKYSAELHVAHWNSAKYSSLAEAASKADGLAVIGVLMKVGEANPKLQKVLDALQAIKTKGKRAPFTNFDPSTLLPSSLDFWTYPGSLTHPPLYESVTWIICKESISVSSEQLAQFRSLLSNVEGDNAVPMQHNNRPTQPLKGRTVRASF
Chain of Carbonic anhydrase 12 (O43570 whole entry): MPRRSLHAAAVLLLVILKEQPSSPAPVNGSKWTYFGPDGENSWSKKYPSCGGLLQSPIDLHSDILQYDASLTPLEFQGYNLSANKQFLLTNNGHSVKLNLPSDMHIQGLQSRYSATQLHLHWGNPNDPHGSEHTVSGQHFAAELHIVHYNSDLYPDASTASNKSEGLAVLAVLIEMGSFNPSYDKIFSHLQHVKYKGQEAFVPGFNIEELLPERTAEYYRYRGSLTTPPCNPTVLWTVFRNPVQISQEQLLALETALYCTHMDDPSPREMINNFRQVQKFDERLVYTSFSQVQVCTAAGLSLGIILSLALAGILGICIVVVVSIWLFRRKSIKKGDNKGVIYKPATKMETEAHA
Description for Carbonic anhydrase 9: Inhibition of human recombinant carbonic anhydrase 9 expressed in Escherichia coli preincubated for 15 mins by stopped flow CO2 hydration method

As usually defined, the Ki is a measure of affinity in units of concentration, obtained from inhibition or displacement. For the molecule `CCc1ccc(-c2cc(C(=O)O)[nH]n2)cc1`, the Ki is above 50 µM at Carbonic anhydrase 1, 42 µM on Carbonic anhydrase 9, 4.5 µM at Carbonic anhydrase 12 and above 50 µM at Carbonic anhydrase 2.

Consider `Cc1cc(C)c(-c2cc(C(=O)O)n[nH]2)cc1C`, for which the Ki is above 50 µM on Carbonic anhydrase 1, 23.5 µM at Carbonic anhydrase 9, above 50 µM on Carbonic anhydrase 12 and above 50 µM on Carbonic anhydrase 2.

In the case of `Cc1ccc(-c2cc(C(=O)O)[nH]n2)c(C)c1`, the Ki at Carbonic anhydrase 1 is above 50 µM; on Carbonic anhydrase 9, 45 µM; on Carbonic anhydrase 12, above 50 µM; at Carbonic anhydrase 2, above 50 µM.

As for `O=C(O)c1cc(-c2ccc3c(c2)CCCC3)[nH]n1`, the Ki on Carbonic anhydrase 1, at Carbonic anhydrase 9 and at Carbonic anhydrase 2 was above 50 µM throughout.

Consider `Cc1ccc(-c2cc(C(=O)O)[nH]n2)cc1C`, for which the inhibitory constant (Ki) is above 50 µM on Carbonic anhydrase 1, 48 µM on Carbonic anhydrase 9, above 50 µM on Carbonic anhydrase 12 and above 50 µM on Carbonic anhydrase 2.

For the molecule `CC(C)c1ccc(-c2cc(C(=O)O)n[nH]2)c(C(C)C)c1`, the inhibition constant (Ki) was above 50 µM at Carbonic anhydrase 1, 16 µM on Carbonic anhydrase 9, above 50 µM on Carbonic anhydrase 12 and above 50 µM at Carbonic anhydrase 2.

Turning to `CCCCc1ccc(-c2cc(C(=O)O)n[nH]2)cc1`, the inhibition constant (Ki) was above 50 µM on Carbonic anhydrase 1, 39 µM on Carbonic anhydrase 9 and above 50 µM on Carbonic anhydrase 2.

For the molecule `COc1ccccc1-c1cc(C(=O)O)n[nH]1`, the Ki at Carbonic anhydrase 1, on Carbonic anhydrase 9 and at Carbonic anhydrase 2 was above 50 µM each time.

Consider `O=C(O)c1cc(-c2ccc3ccccc3c2)[nH]n1`, for which the Ki on Carbonic anhydrase 1, on Carbonic anhydrase 9 and on Carbonic anhydrase 2 was above 50 µM each time.

With `CC(C)c1ccc(-c2cc(C(=O)O)[nH]n2)cc1`, the Ki on Carbonic anhydrase 1, on Carbonic anhydrase 9, at Carbonic anhydrase 12 and at Carbonic anhydrase 2 was above 50 µM each time.

As for `CCc1cc(CC)c(-c2cc(C(=O)O)n[nH]2)c(CC)c1`, the Ki on Carbonic anhydrase 1, on Carbonic anhydrase 9, at Carbonic anhydrase 12 and at Carbonic anhydrase 2 was above 50 µM in each case.

The pKa is the pH at which an ionisable group is half protonated. Low values mean a group that gives up its proton readily, high ones a group that holds its proton tightly. As to `COc1ccc(-c2cc(C(=O)O)n[nH]2)cc1`, the Ki at Carbonic anhydrase 1 is above 50 µM; at Carbonic anhydrase 9, 49.5 µM; on Carbonic anhydrase 12 it was above 50 µM; at Carbonic anhydrase 2, above 50 µM. In data set [1], this molecule gave a pKa of 3.31.

Regarding `O=C(O)c1cc(-c2ccc(N3CCCC3)cc2)[nH]n1`, the Ki at Carbonic anhydrase 1, on Carbonic anhydrase 9 and on Carbonic anhydrase 2 was above 50 µM throughout.

Consider `Cc1cc(C)c(C)c(-c2cc(C(=O)O)n[nH]2)c1C`, for which the Ki on Carbonic anhydrase 1 was above 50 µM; at Carbonic anhydrase 9, 5 µM; at Carbonic anhydrase 12, above 50 µM; on Carbonic anhydrase 2, above 50 µM.

Take `O=C(O)c1cc(-c2ccc(F)cc2)n[nH]1`: the Ki at Carbonic anhydrase 1 was above 50 µM; on Carbonic anhydrase 9, above 50 µM; at Carbonic anhydrase 12, 38.5 µM; on Carbonic anhydrase 2 it was above 50 µM.

`COc1cc(C)c(-c2cc(C(=O)O)n[nH]2)cc1C`: the Ki at Carbonic anhydrase 1 was above 50 µM; at Carbonic anhydrase 9 it was 22.5 µM; at Carbonic anhydrase 12 it was above 50 µM; on Carbonic anhydrase 2, above 50 µM.

For the molecule `CC(C)(C)c1ccc(-c2cc(C(=O)O)n[nH]2)cc1`, the Ki was above 50 µM on Carbonic anhydrase 1, 5 µM on Carbonic anhydrase 9 and above 50 µM at Carbonic anhydrase 2.

On to `O=C(O)c1cc(-c2ccc(-c3ccccc3)cc2)[nH]n1`, for which the Ki on Carbonic anhydrase 1, on Carbonic anhydrase 9 and on Carbonic anhydrase 2 was above 50 µM each time.

Consider `O=C(O)c1cc(-c2cccc(Br)c2)[nH]n1`, for which the Ki on Carbonic anhydrase 1 was above 50 µM; at Carbonic anhydrase 9, 23.5 µM; on Carbonic anhydrase 12 it was above 50 µM; at Carbonic anhydrase 2, above 50 µM.

Turning to `O=C(O)c1cc(-c2ccc(Cl)cc2)n[nH]1`, the Ki is above 50 µM on Carbonic anhydrase 1, above 50 µM at Carbonic anhydrase 9, 50 µM on Carbonic anhydrase 12 and above 50 µM on Carbonic anhydrase 2.

For `CC(C)c1cc(C(C)C)c(-c2cc(C(=O)O)n[nH]2)c(C(C)C)c1`, the Ki at Carbonic anhydrase 1 was above 50 µM; at Carbonic anhydrase 9, 39 µM; on Carbonic anhydrase 2 it was above 50 µM.

For the molecule `Cc1ccc(-c2cc(C(=O)O)[nH]n2)cc1`, the Ki on Carbonic anhydrase 1, at Carbonic anhydrase 9, at Carbonic anhydrase 12 and on Carbonic anhydrase 2 was above 50 µM throughout.

On to `O=C(O)c1cc(-c2ccc(O)cc2)n[nH]1`, for which the Ki at Carbonic anhydrase 1 is above 50 µM; at Carbonic anhydrase 9, above 50 µM; at Carbonic anhydrase 12 it was 41 µM; on Carbonic anhydrase 2, above 50 µM.
